Measured values from US9586931B2 (Merck Sharp & Dohme Corp., priority 2012, dated 2017).

Molecular target: T1, recombinant human GST-Syk (Homo sapiens, UniProt P43405)
T1 construct: purchased Carna Biosciences 08-176
Test: Homogeneous Time-Resolved Fluorescence (HTRF) assay for the recombinant human Syk enzyme
Type: biochemical
Details: recombinant human GST-Syk 5 pM, ATP 25 μM, 10-dose titration 10 μM to 0.508 nM; read-out: rhSYK Activity IC50
Procedure, shortened: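 Detection used time-resolved fluorescence 30 min after adding a quench mix (40 mM EDTA, 15 mM Tris pH 7.5, 0.01% Tween 20) containing 2 nM Europium anti-pTyr antibody and 70 nM streptavidin-APC. This followed 45 min of room-temperature peptide phosphorylation by recombinant GST-tagged human Syk.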

SMILES | IC50 [nM]
Cc1cc(Nc2cc(C(F)(F)F)ccn2)nc(-c2cn(C(C)C(=O)NCc3cc(-c4ccco4)on3)nn2)c1 (stereo not shown) [Example 1.37, N-[(5-furan-2-ylisoxazol-3-yl)methyl]-2-[4-(4-methyl-6-{[4-(trifluoromethyl)pyridin-2-yl]amino}pyridin-2-yl)-1H-1,2,3-triazol-1-yl]propanamide] | 33.9
Cc1cc(Nc2cc(C(F)(F)F)ccn2)nc(-c2cn(C[C@@H](O)C(N)=O)nn2)c1 [Example 1.14, (2R)-2-hydroxy-3-[4-(4-methyl-6-{[4-(trifluoromethyl)pyridin-2-yl]amino}pyridin-2-yl)-1H-1,2,3-triazol-1-yl]propanamide] | 9.1
Cc1cc(Nc2nccc(C(F)F)n2)cc(-c2cn(CC3OC(=O)NC3C)nn2)c1 (single isomer, unassigned) [Example 7.42, 5-{[4-(3-{[4-(difluoromethyl)pyrimidin-2-yl]amino}-5-methylphenyl)-1H-1,2,3-triazol-1-yl]methyl}-4-methyl-1,3-oxazolidin-2-one] | 10.7
COC(=O)C1CCC(n2cc(-c3cc(C)cc(Nc4nccc(C(F)(F)F)n4)c3)nn2)CC1 (mixture of isomers) [Example 5.99, methyl 4-[4-(3-methyl-5-{[4-(trifluoromethyl)pyrimidin-2-yl]amino}phenyl)-1H-1,2,3-triazol-1-yl]cyclohexane-carboxylate] | 430
Cc1cc(Nc2cc(C(F)(F)F)ccn2)nc(-c2cn(C3CCCC(O)C3O)nn2)c1 (stereo not shown) [Example 10.11, 3-[4-(4-methyl-6-{[4-(trifluoromethyl)pyridin-2-yl]amino}pyridin-2-yl)-1H-1,2,3-triazol-1-yl]cyclohexane-1,2-diol] | 3.3
Cc1cc(Nc2nccc(C(F)(F)F)n2)cc(-c2cn(C[C@H](C)CO)nn2)c1 [Example 5.72, (2S)-2-methyl-3-[4-(3-methyl-5-{[4-(trifluoromethyl)pyrimidin-2-yl]amino}phenyl)-1H-1,2,3-triazol-1-yl]propan-1-ol] | 38.1
Cc1cc(Nc2cc(C(F)(F)F)ccn2)nc(-c2cn(C3CCNC(=O)CC3)nn2)c1 (racemic) [Example 11.1, 5-[4-(4-Methyl-6-{[4-(trifluoromethyl)pyridin-2-yl]amino}pyridin-2-yl)-1H-1,2,3-triazol-1-yl]azepan-2-one] | 21.2
Cc1cc(Nc2nccc(C(F)(F)F)n2)cc(-n2cc(C3(O)CCC(O)CC3)nn2)c1 (stereo not drawn) [Example 15.16, trans-1-[1-(3-methyl-5-{[4-(trifluoromethyl)pyrimidin-2-yl]amino}phenyl)-1H-1,2,3-triazol-4-yl]cyclohexane-1,4-diol] | 117
Cc1cc(Nc2cc(C(F)(F)F)ccn2)nc(-c2cn(C(C)C(=O)NCCc3c[nH]c4ccc(OCc5ccccc5)cc34)nn2)c1 (stereo not shown) [Example 1.30, N-{2-[5-(benzyloxy)-1H-indol-3-yl]ethyl}-2-[4-(4-methyl-6-{[4-(trifluoromethyl)pyridin-2-yl]amino}pyridin-2-yl)-1H-1,2,3-triazol-1-yl]propanamide] | 1620
Cc1cc(Nc2cc(C(F)(F)F)ccn2)nc(-c2cn(C(C)C(O)CC#N)nn2)c1 (stereo not shown) [Example 4.10, 3-hydroxy-4-[4-(4-methyl-6-{[4-(trifluoromethyl)pyridin-2-yl]amino}pyridin-2-yl)-1H-1,2,3-triazol-1-yl]pentanenitrile] | 5.7
Cc1cc(Nc2cc(C(F)(F)F)ccn2)nc(-c2cn(C(C)C(=O)NCCc3cccc(Oc4ccccc4)c3)nn2)c1 (stereo not shown) [Example 1.36, 2-[4-(4-methyl-6-{[4-(trifluoromethyl)pyridin-2-yl]amino}pyridin-2-yl)-1H-1,2,3-triazol-1-yl]-N-[2-(3-phenoxyphenyl)ethyl]propanamide] | 1460
Cc1cc(Nc2cc(C(F)(F)F)ccn2)nc(-c2cn(CC3=CCCCC3)nn2)c1 [Example 9.6, 6-[1-(cyclohex-1-en-1-ylmethyl)-1H-1,2,3-triazol-4-yl]-4-methyl-N-[4-(trifluoromethyl)pyridin-2-yl]pyridin-2-amine] | 78.8
Cc1cc(Nc2cc(C(F)(F)F)ccn2)nc(-c2cn(CC(O)C(=O)O)nn2)c1 (racemic) [Example 5.39, 2-hydroxy-3-[4-(4-methyl-6-{[4-(trifluoromethyl)pyridin-2-yl]amino}pyridin-2-yl)-1H-1,2,3-triazol-1-yl]propanoic acid] | 44.9
Cc1cc(Nc2nccc(C(F)(F)F)n2)cc(-c2cn(C3CCC(C(=O)OC(C)(C)C)CC3)nn2)c1 (stereo not shown) [Example 9.4, tert-butyl 4-[4-(3-methyl-5-{[4-(trifluoromethyl)-pyrimidin-2-yl]amino}-phenyl)-1H-1,2,3-triazol-1-yl]cyclohexane-carboxylate] | 7220
Cc1cc(Nc2nccc(C(F)(F)F)n2)cc(-c2cn(C3CS(=O)(=O)CC3O)nn2)c1 (stereo not shown) [Example 5.63, 4-[4-(3-methyl-5-{[4-(trifluoromethyl)pyrimidin-2-yl]amino}phenyl)-1H-1,2,3-triazol-1-yl]tetrahydrothiophene-3-ol 1,1-dioxide] | 24.1
Cc1cc(Nc2nccc(C)n2)cc(-c2cn(C3CCCCC3O)nn2)c1 (single isomer, unassigned) [Example 7.22, 2-(4-{3-methyl-5-[(4-methylpyrimidin-2-yl)amino]phenyl}-1H-1,2,3-triazol-1-yl)cyclohexanol] | 56
Cc1cc(Nc2nccc(OCCO)n2)cc(-c2cn(C[C@H](O)CO)nn2)c1 [Example 5.8, (2S)-3-[4-(3-{[4-(2-hydroxyethoxy)pyrimidin-2-yl]amino}-5-methylphenyl)-1H-1,2,3-triazol-1-yl]propane-1,2-diol] | 62
Cc1cc(Nc2cc(C(F)(F)F)ccn2)nc(-c2cn(C3CCNC(=O)CC3)nn2)c1 (racemic) [Example 11.3, 5-[4-(4-methyl-6-{[4-(trifluoromethyl)pyridin-2-yl]amino}pyridin-2-yl)-1H-1,2,3-triazol-1-yl]azepan-2-one] | 118
Cc1cc(Nc2cc(C(F)(F)F)ccn2)nc(-c2cn(C(CO)c3ccc(F)cc3)nn2)c1 (stereo not shown) [Example 13.7, 2-(4-fluorophenyl)-2-[4-(4-methyl-6-{[4-(trifluoromethyl)pyridin-2-yl]amino}pyridin-2-yl)-1H-1,2,3-triazol-1-yl]ethanol] | 3.7
Cc1cc(Nc2cc(C(F)(F)F)ccn2)nc(-c2cn(CC(O)C(C)C)nn2)c1 (stereo not shown) [Example 4.24, 3-methyl-1-[4-(4-methyl-6-{[4-(trifluoromethyl)pyridin-2-yl]amino}pyridin-2-yl)-1H-1,2,3-triazol-1-yl]butan-2-ol] | 8.3
Cc1cc(Nc2cc(C(F)(F)F)ccn2)nc(-c2cn(C(C)C(=O)NCCc3ccc(Oc4ccccc4)cc3)nn2)c1 (stereo not shown) [Example 1.46, 2-[4-(4-methyl-6-{[4-(trifluoromethyl)pyridin-2-yl]amino}pyridin-2-yl)-1H-1,2,3-triazol-1-yl]-N-[2-(4-phenoxyphenyl)ethyl]propanamide] | 1400
Cc1cc(Nc2nccc(C(F)(F)F)n2)cc(-n2cc([C@]3(O)CC[C@H](C(=O)O)CC3)nn2)c1 [Example 15.3, trans-4-hydroxy-4-[1-(3-methyl-5-{[4-(trifluoromethyl)pyrimidin-2-yl]amino}phenyl)-1H-1,2,3-triazol-4-yl]cyclohexanecarboxylic acid] | 232

Next, values leading:

IC50 [nM] | SMILES
328 | Cc1cc(Nc2cc(C(F)(F)F)ccn2)nc(-c2nnc[nH]2)c1 [Example 16.2, 4-methyl-6-(4H-1,2,4-triazol-3-yl)-N-[4-(trifluoromethyl)pyridin-2-yl]pyridin-2-amine]
182 | Cc1cc(Nc2ncc(Cl)c(C)n2)cc(-c2cn(CC(C)(O)C(C)(C)O)nn2)c1 (stereo not shown) [Example 21.11, 1-(4-{3-[(5-chloro-4-methylpyrimidin-2-yl)amino]-5-methylphenyl}-1H-1,2,3-triazol-1-yl)-2,3-dimethylbutane-2,3-diol]
13.2 | Cc1cc(Nc2nccc(C(F)(F)F)n2)cc(-c2cn(CC(C)(O)C(C)(C)O)nn2)c1 (stereo not shown) [Example 21.28, 2,3-dimethyl-1-[4-(3-methyl-5-{[4-(trifluoromethyl)pyrimidin-2-yl]amino}phenyl)-1H-1,2,3-triazol-1-yl]butane-2,3-diol]
19.7 | Cc1cc(Nc2nccc(C(F)F)n2)cc(-c2cn(CC(C)(O)CC#N)nn2)c1 (single isomer, unassigned) [Example 27.1, 4-(4-(3-((4-(difluoromethyl)pyrimidin-2-yl)amino)-5-methylphenyl)-1H-1,2,3-triazol-1-yl)-3-hydroxy-3-methylbutanenitrile]
27.9 | COc1ccnc(Nc2cc(C)cc(-c3cn(CC(C)(O)C(C)(C)O)nn3)c2)n1 (stereo not shown) [Example 21.23, 1-(4-{3-[(4-methoxypyrimidin-2-yl)amino]-5-methylphenyl}-1H-1,2,3-triazol-1-yl)-2,3-dimethylbutane-2,3-diol]
1.9 | Cc1cc(Nc2cc(C(F)F)ccn2)nc(-c2cn(C3CCCC(O)C3O)nn2)c1 (stereo not shown) [Example 21.37, 3-(4-(6-((4-(difluoromethyl)pyridin-2-yl)amino)-4-methylpyridin-2-yl)-1H-1,2,3-triazol-1-yl)cyclohexane-1,2-diol]
6.5 | Cc1cc(Nc2cc(C(F)F)ccn2)nc(-c2cn(C(C)C(C)(O)CO)nn2)c1 (single isomer, unassigned) [Example 30.6, 3-[4-(6-{[4-(difluoromethyl)pyridin-2-yl]amino}-4-methylpyridin-2-yl)-1H-1,2,3-triazol-1-yl]-2-methylbutane-1,2-diol]
12.4 | Cc1cc(Nc2nccc(C(F)F)n2)cc(-c2cn(C(C)C(C)(O)CO)nn2)c1 (single isomer, unassigned) [Example 30.1, 3-(4-(3-((4-(Difluoromethyl)pyrimidin-2-yl)amino)-5-methylphenyl)-1H-1,2,3-triazol-1-yl)-2-methylbutane-1,2-diol]
2.2 | Cc1cc(Nc2cc(C(F)(F)F)ccn2)nc(-c2cn(C(C)CO)nn2)c1 (stereo not shown) [Example 18.1, 2-[4-(4-Methyl-6-{[4-(trifluoromethyl)pyridin-2-yl]amino}pyridin-2-yl)-1H-1,2,3-triazol-1-yl]propan-1-ol]
